Measured values as given in US20200188466A1, “COMPOSITIONS OF SCHISANDRA EXTRACTS AND METHODS THEREOF” (Reyoung Corporation, priority 2017, published 2020).

Test: in vivo
Design: species or system Sprague Dawley rats
Settings: male, Sprague Dawley, rat, po, 2.4 mg/kg
Description: 42 Male Sprague Dawley rats (weight, 220-280 g) were maintained on a 12-hour light/dark cycle with free access to water and lab chow for 10-14 hours prior to the experiment. Rats were randomly divided into 7 groups (n=6/group) and groups 2-7 received 0 mg/kg, 6.0 mg/kg, and 12.0 mg/kg, 24.0 mg/kg, 48.0 mg/kg and 60.0 mg/kg of Schisandrin A in 1% CMC-Na (300-800 cps) via oral administration, respectively. After 5 minutes, all the groups received 2.4 mg/kg of triptolide in a solution of 2% DMSO-98% Sterile Water via oral administration.
After triptolide treatment, blood samples were collected from individual rat at 5 min, 10 min, 15 min, 20 min, 30 min, 45 min, 1 h, 2 h, 4 h, 8 h, and 24 h, respectively. Plasma was separated by centrifugation at 8000 rpm for 6 minutes at 4° C. and kept at −80° C. until analysis. Plasma homogenate was injected into LC-MS/MS for analysis.

Work on CC(C)[C@]12O[C@H]1[C@@H]1O[C@]13[C@]1(O[C@H]1C[C@H]1C4=C(CC[C@@]13C)C(=O)OC4)[C@@H]2O [triptolide] yielded an AUC(0-t) (AUC0→t of triptolide) of 31.5 ± 25.4 ng·h/mL, an AUC(0-inf) (AUC0→∞ of triptolide) of 31.5 ± 25.4 ng·h/mL and a Cmax (Cmax of triptolide) of 56.4 ± 25.1 ng/mL. The MRT last (MRT0→t of triptolide) was 25.8 ± 9.6 min, the MRT inf (MRT0→∞ of triptolide) was 39.6 ± 21 min and the half-life (T1/2 of triptolide) was 25.2 ± 13.8 min. The Tmax (Tmax of triptolide) was 9.96 ± 5.4 min.
